Laboratory results taken from article PMC6828666, “Discovery of holoenzyme-disrupting chemicals as substrate-selective CK2 inhibitors” (Scientific Reports, 2019).

Assays:
[1] = target: T1, CK2 subunit association in MCF10A cells (Homo sapiens, UniProt P68400); experiment: Anti-CK2β immunoprecipitation from treated MCF10A cells; assay type: cell-based; settings: 75 μM, 4 h; CK2β-dependent and CK2β-independent substrate; vs DMSO
T1 construct: endogenous in cells; host or cells: MCF10A
Protocol: The transient nature of the CK2 holoenzyme has been highlighted by the elucidation of its structure. Furthermore, analysis of the spatiotemporal organization of individual CK2 subunits in living cells has shown that they are highly dynamic[10],[12]. Thus, we evaluated the effect of 6 on the CK2 subunit association in human mammary epithelial cells, using two independent strategies. First, CK2β was immunoprecipitated from extracts of MCF10A cells treated with DMSO as control or 75 μM of 6, and the amount of CK2α or CK2 catalytic activity recovered in the immunoprecipitates were analyzed by western blot and CK2 activity assay.
Anti-CK2β immunoprecipitates were prepared from MCF10A cells incubated with DMSO (0.5%) or 75 μM 6 for 4 h. The corresponding immunoprecipitates were analyzed for the presence of CK2 subunits by Western blot (a) and quantified in (b) or for CK2 activity with CK2β-independent and CK2β-dependent peptide substrate (c). […] (d) In situ proximity ligation images of MCF10A cells incubated with 50 μM 6 for 3 h. (e) Number of fluorescent dots per cell was quantified using the BlobFinder software. n = 120 cells from two independent experiments. Mann Whitney test was used and results were found significant (*p-value = 0.0003 and **p-value = 0.044). TEXT PRINTED IN THE PICTURE: (a) 6: Ratio CK2α/CK2β relative to control: 0.77 (75 μM)

[2] = target: T2, CK2α2β2 holoenzyme (Homo sapiens, UniProt P68400); experiment: Olig2 phosphorylation assay (CK2β-dependent protein substrate); assay type: biochemical; settings: 50 μM compound; GST-Olig-2, CK2α, increasing CK2β
T2 construct: made in house; host or cells: Escherichia coli (CK2α)
Protocol: For Olig2 phosphorylation assay, GST-Olig2 fusion protein (3.7 μg) was incubated with 200 nM CK2α, in the absence or presence of 50 μM compound 1 and increasing concentrations of CK2β. Samples were analyzed by SDS PAGE and subjected to autoradiography. Phosphoproteins were quantified by densitometry scanning. For eIF2 peptide phosphorylation assay, the CK2β-dependent peptide substrate (600 μM) was incubated with CK2α (40–50 nM) and increasing concentrations of compound 1 or/and CK2β.
Fig. S3. Compound 1 inhibits CK2β-dependent phosphorylation of Olig2 transcription factor and CK2β-dependent autophosphorylation. (a) CK2α (200 nM) was incubated with increasing concentrations of CK2β in the absence or presence of compound 1 (50 μM) followed by the addition of GST-Olig2 (3.7 μg), [γ^32P]-ATP (100 μM, 1 μCi) and MgCl2 (10 mM). Samples were analyzed by SDS PAGE and subjected to autoradiography. Left and right parts of the image are from the same gel (see Supplementary Fig. S16). (b) ^32P incorporated into GST-Olig2 was determined by densitometry scanning and is expressed as arbitrary units; (c) CK2β (300 nM) was incubated with increasing concentrations of compound 1, 10 μM [γ^32P] […] Phosphorylated proteins were separated by SDS/PAGE and analyzed by autoradiography (c) or Coomassie Blue staining (d); ^32P incorporation into CK2β was quantified and expressed as arbitrary units (e). […]

[3] = target: T3, CK2 holoenzyme (Homo sapiens, UniProt P68400); experiment: Autophosphorylation of CK2β by CK2 holoenzyme; assay type: biochemical; settings: increasing concentrations of compound
T3 construct: made in house; host or cells: Escherichia coli (CK2α)
Protocol: Fig. S3. Compound 1 inhibits CK2β-dependent phosphorylation of Olig2 transcription factor and CK2β-dependent autophosphorylation. (a) CK2α (200 nM) was incubated with increasing concentrations of CK2β in the absence or presence of compound 1 (50 μM) followed by the addition of GST-Olig2 (3.7 μg), [γ^32P]-ATP (100 μM, 1 μCi) and MgCl2 (10 mM). Samples were analyzed by SDS PAGE and subjected to autoradiography. Left and right parts of the image are from the same gel (see Supplementary Fig. S16). (b) ^32P incorporated into GST-Olig2 was determined by densitometry scanning and is expressed as arbitrary units; (c) CK2β (300 nM) was incubated with increasing concentrations of compound 1, 10 μM [γ^32P] ATP and 10 mM MgCl2. Autophosphorylation was initiated by the addition of 300 nM CK2α. Phosphorylated proteins were separated by SDS/PAGE and analyzed by autoradiography (c) or Coomassie Blue staining (d); ^32P incorporation into CK2β was quantified and expressed as arbitrary units (e). Uncropped blots are shown in Supplementary Fig. S16.

[4] = target: CK2α/CK2β interaction (Homo sapiens, UniProt P68400); experiment: SPR competition study of MBP-CK2β binding to GST-CK2α; settings: 70 μM
Protocol: SPR competition studies (Fig. 2i) were performed using a BIAcore 3000 instrument (BIAcore AB) equipped with a CM5 sensor chip (BIAcore AB). After activation with a solution of N-hydroxysuccinimide and N-ethyl-N-(dimethylaminopropyl)carbodiimide hydrochloride (coupling solution BIAcore AB), the anti-GST antibody diluted at 30 μg/ml in 10 mM acetate buffer pH 5.0 was injected at a flow rate of 5 μL/min for 7 min. All the surfaces were blocked with a 3 min injection at 10 μL/min of 1 M ethanolamine, pH 8.0. GST-CK2α (50 μg/ml) was immobilized on the surface at a flow rate of 5 μL/min in HBS (10 mM Hepes pH 7.3, 0.15 M NaCl, 3 mM EDTA, 0.005% polysorbate 20). MBP-CK2β diluted at 50 μg/ml in HBS buffer was injected over the surface at a flow rate of 5 μL/min in presence of various compound 1 concentration. Regeneration of the surfaces was achieved by injection of 10 mM glycine-HCl pH 2.2. SPR binding studies (Supplementary Fig. S7) were performed using a Reichert SR7000DC instrument optical biosensor (Reichert Technologies) equipped with a CMD500m sensor chip obtained from XanTec Bioanalytics. CK2α was immobilized by a capturing approach using a monoclonal anti-GST antibody (27 kDa, Clone GST-R 6G9 produced in rat, SAB4200055 Sigma Aldrich). […]

Sequence of CK2α/CK2β interaction (P68400 whole entry): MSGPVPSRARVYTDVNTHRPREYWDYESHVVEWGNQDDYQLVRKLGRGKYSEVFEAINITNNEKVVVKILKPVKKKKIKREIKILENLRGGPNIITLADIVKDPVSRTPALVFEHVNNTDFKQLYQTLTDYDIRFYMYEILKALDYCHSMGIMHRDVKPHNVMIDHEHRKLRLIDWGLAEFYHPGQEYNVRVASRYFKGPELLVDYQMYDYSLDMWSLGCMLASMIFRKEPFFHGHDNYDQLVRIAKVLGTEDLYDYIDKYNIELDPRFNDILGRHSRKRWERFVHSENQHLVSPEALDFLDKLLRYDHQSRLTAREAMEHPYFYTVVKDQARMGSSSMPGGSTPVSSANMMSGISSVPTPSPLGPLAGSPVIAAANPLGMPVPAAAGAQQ
T1 sequence (P68400 whole entry): as above
T2 sequence (P68400 whole entry): as above
T3 sequence (P68400 whole entry): as above

Structure (SMILES) | CK2 activity in anti-CK2β precipitates [1] | decrease in Olig-2 phosphorylation [2] | autophosphorylation of CK2β [3] | reduction of SPR signal (MBP-CK2β binding to GST-CK2α) [4]
COc1[nH]c2ccc(F)cc2c1C(=O)OCC1CCN(CCNS(=O)(=O)c2ccccc2)CC1.Cl [Compound 6] | significantly lower | – | – | –
COc1[nH]c2ccc(F)cc2c1C(=O)OCC1CCN(CCNS(C)(=O)=O)CC1 [Compound 1] | – | ~ 50% | dose-dependent decrease | about 60%
